From ChEMBL document CHEMBL1201862, “PubChem BioAssay data set” (2004)
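In this assay, cells in 96-well plates receive the compound at five concentrations for 48 hours. Endpoints are linearly interpolated between the surrounding concentrations. GI50 = concentration required for 50% inhibition of growth.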 Active and inactive are the calls of the source. Rule as the data show it: active = GI50 up to about 1.1 µM and inactive = higher.

Legend:
Experiment in all cases: NCI anticancer screen, dose series, 48 h
A498 = tested on: A498
A549 = tested on: A549
COLO 205 = tested on: COLO 205
HOP-92 = tested on: HOP-92
MOLT-4 = tested on: MOLT-4
NCI-H226 = tested on: NCI-H226
SF-295 = tested on: SF-295
SF-539 = tested on: SF-539
SK-MEL-2 = tested on: SK-MEL-2
SNB-19 = tested on: SNB-19
SNB-75 = tested on: SNB-75
TK-10 = tested on: TK-10
UACC-257 = tested on: UACC-257
UO-31 = tested on: UO-31
U-251 = tested on: U-251

Measured: GI50

CC1CC(c2cccc3c2OCO3)=Nc2ccccc2S1 (stereo unspecified)
inactive: A498 > 100 µM | A549 > 100 µM | COLO 205 > 100 µM | HOP-92 > 100 µM | MOLT-4 > 100 µM | NCI-H226 > 100 µM | SF-295 > 100 µM | SF-539 > 100 µM | SK-MEL-2 > 100 µM | SNB-19 > 100 µM | SNB-75 > 100 µM | TK-10 > 100 µM | UACC-257 > 100 µM | UO-31 > 100 µM

CC(C)[C@@H](COC(C)(C)C)/N=C/N1CCc2c([nH]c3ccccc23)C1
inactive: A498 > 100 µM | A549 > 100 µM | COLO 205 > 100 µM | HOP-92 21.5 µM | MOLT-4 > 100 µM | NCI-H226 > 100 µM | SF-295 > 100 µM | SF-539 > 100 µM | SK-MEL-2 > 100 µM | SNB-19 > 100 µM | SNB-75 > 100 µM | TK-10 > 100 µM | U-251 > 100 µM | UO-31 84.9 µM

O=C(Cc1ccccc1)NN1C(=O)C(Cl)C1c1ccccc1Cl (stereo unspecified)
inactive: A498 > 100 µM | A549 > 100 µM | COLO 205 > 100 µM | HOP-92 > 100 µM | MOLT-4 26.2 µM | NCI-H226 > 100 µM | SF-295 99.8 µM | SF-539 > 100 µM | SK-MEL-2 > 100 µM | SNB-19 > 100 µM | SNB-75 51.3 µM | TK-10 > 100 µM | U-251 44.1 µM | UACC-257 > 70.6 µM | UO-31 > 100 µM

CC(=O)c1cccc(N2COC(C)(C)c3nc4ccccc4n3C2)c1
inactive: A498 > 100 µM | A549 > 100 µM | COLO 205 > 100 µM | HOP-92 > 100 µM | MOLT-4 > 100 µM | NCI-H226 > 100 µM | SF-295 > 100 µM | SF-539 > 100 µM | SK-MEL-2 > 100 µM | SNB-19 > 100 µM | SNB-75 > 100 µM | TK-10 > 100 µM | U-251 > 100 µM | UACC-257 > 100 µM | UO-31 > 100 µM

CCOC(=O)C1=NC(c2ccccc2)(c2ccccc2)OC1=C(Cl)Cl
inactive: A498 > 100 µM | A549 54.6 µM | COLO 205 > 100 µM | HOP-92 35.4 µM | MOLT-4 36 µM | NCI-H226 > 100 µM | SF-295 > 100 µM | SF-539 > 100 µM | SNB-19 > 100 µM | SNB-75 > 100 µM | TK-10 > 100 µM | U-251 74.6 µM | UACC-257 32.4 µM | UO-31 65 µM

Nc1ncnc2c1nnn2C1C=C(CO)C(O)C1O (stereo unspecified)
inactive: A498 > 100 µM | A549 58.1 µM | COLO 205 > 36 µM | HOP-92 14.3 µM | MOLT-4 > 100 µM | NCI-H226 > 100 µM | SF-295 > 100 µM | SF-539 > 85.3 µM | SK-MEL-2 > 60 µM | SNB-19 > 100 µM | SNB-75 30.9 µM | TK-10 > 92.5 µM | U-251 > 100 µM | UACC-257 > 100 µM | UO-31 42.5 µM

N#CCc1ccc(C(C#N)/C(CCCC(=O)Nc2cccc([N+](=O)[O-])c2)=N/NC(N)=S)cc1 (stereo unspecified)
inactive: A498 > 100 µM | A549 > 100 µM | COLO 205 > 100 µM | HOP-92 83.8 µM | MOLT-4 70.3 µM | NCI-H226 > 100 µM | SF-295 > 100 µM | SF-539 > 100 µM | SK-MEL-2 > 100 µM | SNB-19 76 µM | SNB-75 > 100 µM | TK-10 > 100 µM | U-251 > 100 µM | UACC-257 > 100 µM | UO-31 > 100 µM

O=C1C(Br)=C[C@H]2C3C=CC(Br)(C3=O)[C@@H]12 (stereo partly specified)
inactive: A498 19 µM | A549 15.3 µM | COLO 205 9.75 µM | HOP-92 16.2 µM | MOLT-4 2.3 µM | NCI-H226 19 µM | SF-295 18 µM | SF-539 13.3 µM | SK-MEL-2 14.3 µM | SNB-19 14.1 µM | SNB-75 22.5 µM | U-251 13.8 µM | UACC-257 12.2 µM | UO-31 16.7 µM

CCCc1c(C(=O)OCC)[nH]c(C(=O)CCC(=O)c2[nH]c(C(=O)OCC)c(CCC)c2C(=O)OCC)c1C(=O)OCC
inactive: A498 > 100 µM | A549 > 100 µM | COLO 205 > 100 µM | HOP-92 > 100 µM | MOLT-4 > 100 µM | NCI-H226 > 100 µM | SF-295 > 100 µM | SF-539 > 100 µM | SK-MEL-2 68.9 µM | SNB-19 > 100 µM | SNB-75 19.1 µM | TK-10 > 100 µM | U-251 > 100 µM | UACC-257 > 100 µM | UO-31 > 100 µM

CC1(C)CCC[C@@]2(C)C1CCC1(C)C(CCc3ccoc3)/C(=C/OS(=O)(=O)O)CCC12 (stereo partly specified)
inactive: A498 > 100 µM | A549 > 100 µM | COLO 205 54.6 µM | HOP-92 23.9 µM | MOLT-4 23.6 µM | NCI-H226 54.8 µM | SF-295 49.9 µM | SF-539 > 100 µM | SK-MEL-2 58.5 µM | SNB-19 > 100 µM | SNB-75 > 100 µM | TK-10 > 100 µM | U-251 57.5 µM | UACC-257 > 100 µM | UO-31 72.3 µM
